# Measured values from patent EP4647433A1, “SHP2 INHIBITOR AND USES THEREOF” (Kanaph Therapeutics Inc., priority 2023, dated 2024).
# Where two headings read alike, the source gives them in different places.
# Experiments:
# H358 cells = experiment: Cell viability (3D spheroid, 3D CellTiter-Glo); assay type: cell-based; details: Homo sapiens, NCI-H358, 120 h; H358 spheroids, 5 days treatment
# Protocol: Human non-small cell lung cancer cell line H358 cells were purchased from the Korean Cell Line Bank. Cancer cell lines were cultured in the recommended RPMI-1640 medium supplemented with 10% fetal bovine serum (FBS) and 1% penicillin/streptomycin. Monolayer-cultured cancer cell lines were detached by treatment with Trypsin/EDTA, and 100 µL of cell suspension containing 4 x 10^3 cells was each dispensed into SPL3D™ Cell Floater, 96-well round plate, through cell line counting. After culturing for 72 hours to form spheroid, the cells were individually treated with the compounds according to the Examples, which had been serially diluted (minimum 1.5 nM, maximum 10 µM in concentration), and then cultured in a cell incubator for 5 days. To analyze cell viability, the cells were treated with 50 uL of 3D CellTiter-Glo, stirred for 5 minutes at 500 rpm in a plate shaker from Thermo Fisher Scientific, and incubated for 25 minutes at room temperature. Then, the luminescent values were measured using a Varioskan equipment from Thermo Fisher Scientific. IC50 values were obtained using GraphPad's Prism from the measured values depending on the concentration.
# In the cell viability assay, when an IC50 value was 50 nM or more, + was indicated, when an IC50 value was 10 nM or more and less than 50 nM, ++ was indicated, and when an IC50 value was less than 10 nM, +++ was indicated.
# SHP2 = biological target: T1, SHP2 (Homo sapiens, UniProt Q06124); experiment: Phosphatase assay (PTPase assay, DiFMUP substrate); assay type: biochemical
# T1 construct: SHP2 (full length, diluted to 100 pM final concentration in reaction buffer, BPS bioscience, US); purchased BPS bioscience, US
# T1 sequence (Q06124 1-593): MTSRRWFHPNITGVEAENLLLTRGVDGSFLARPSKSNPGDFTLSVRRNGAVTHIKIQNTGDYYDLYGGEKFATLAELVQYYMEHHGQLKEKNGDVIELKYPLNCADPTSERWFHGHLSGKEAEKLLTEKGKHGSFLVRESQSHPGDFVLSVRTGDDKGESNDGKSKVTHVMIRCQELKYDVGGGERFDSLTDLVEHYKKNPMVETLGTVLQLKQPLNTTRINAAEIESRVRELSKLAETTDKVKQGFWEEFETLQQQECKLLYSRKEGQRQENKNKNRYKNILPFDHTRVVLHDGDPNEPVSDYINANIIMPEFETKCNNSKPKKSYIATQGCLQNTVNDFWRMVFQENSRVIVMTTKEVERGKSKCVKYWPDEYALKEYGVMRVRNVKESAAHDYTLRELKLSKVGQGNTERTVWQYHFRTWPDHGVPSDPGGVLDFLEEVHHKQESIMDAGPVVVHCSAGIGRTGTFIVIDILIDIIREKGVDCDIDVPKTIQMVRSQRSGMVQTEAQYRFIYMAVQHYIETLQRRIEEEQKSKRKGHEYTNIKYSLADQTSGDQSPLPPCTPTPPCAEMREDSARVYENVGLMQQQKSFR
# Protocol: IC50 values were measured using 6,8-difluoro-4-methylumbelliferyl phosphate (DiFMUP) as a substrate. The reaction was performed in a 384-well plate, and fluorescence measurement values were obtained using an EnVision plate reader from PerkinElmer.
# SHP2 (full length, diluted to 100 pM final concentration in reaction buffer, BPS bioscience, US) was incubated with the SHP2 activating peptide in reaction buffer (60 mM HEPES (pH 7.2), 75 mM NaCl, 75 mM KCl, 1 mM EDTA, 5 mM DTT, 0.05% P-20) for 30 minutes to activate SHP2. After activation, DMSO [1% (V/V) or the compound according to the Examples (concentration ranging from 0.6 nM to 10 µM)] was added. As a positive control group, the selective SHP2 inhibitors SHP099 (6-(4-amino-4-methylpiperidin-1-yl)-3-(2,3-dichlorophenyl)pyrazin-2-amine, FOCUS bioscience, Austrailia; concentration ranging from 0.6 nM to 10 µM) and TNO155 ((3S,4S)-8-(6-amino-5-((2-amino-3-chloropyridin-4-yl)thio)pyrazin-2-yl)-3-methyl-2-oxa-8-azaspiro[4.5]decan-4-amine, Chemietek, US; concentration ranging from 0.6 nM to 10 µM) were used. [drawing 184]
# DiFMUP (80 µM) was added to the reaction and incubated for a total of 2 hours to allow for the reaction to proceed. Thereafter, fluorescence (340 nm excitation, 450 nm emission) values were measured. IC50 values were obtained using Graphad's Prism from the measured values depending on the concentration.
# In the phosphatase assay (PTPase assay), when an IC50 value was 100 nM or more, + was indicated, when an IC50 value was 3 nM or more and less than 100 nM, ++ was indicated, and when an IC50 value was less than 3 nM, +++ was indicated.
# [1] = full length SHP2 100 pM activated with SHP2 activating peptide, DiFMUP 80 µM, 2 hours, read-out: PTPase assay (IC50)
Structure (SMILES),IC50 (H358 cells),IC50 (SHP2; [1]),IC50 (SHP2)
"COC(C)(C)Cn1cnc2ccc(Sc3cnc(N4CCC5(CC4)Cc4scnc4[C@H]5N)cn3)c(Cl)c2c1=O [Example 33, (S)-6-((5-(4-amino-4,6-dihydrospiro[cyclopenta[d]thiazole-5,4'-piperidin]-1'-yl)pyrazin-2-yl)thio)-5-chloro-3-(2-methoxy-2-methylpropyl)quinazolin-4(3H)-one]",10 to 50 nM,–,–
"C[C@@H]1OCC2(CCN(c3cnc(Sc4ccc5ncn(CC6CCN(C)CC6)c(=O)c5c4Cl)cn3)CC2)[C@@H]1N [Example 26, 6-((5-((3S,4S)-4-amino-3-methyl-2-oxa-8-azaspiro[4.5]decan-8-yl)pyrazin-2-yl)thio)-5-chloro-3-((1-methylpiperidin-4-yl)methyl)quinazolin-4(3H)-one]",< 10 nM,3 to 100 nM,–
"CC1(CN)CCN(c2cnc(Sc3ccc4ncn(Cc5ccccc5)c(=O)c4c3Cl)c(N)n2)CC1 [Example 13, 6-((3-amino-5-(4-(aminomethyl)-4-methylpiperidine-1-yl)pyrazin-2-yl)thio)-3-benzyl-5-chloroquinazolin-4(3H)-one]",–,3 to 100 nM,–
"CC(C)n1ccc2ccc(Sc3cnc(N4CCC5(CC4)Cc4ncsc4[C@H]5N)cn3)c(Cl)c2c1=O [Example 40, (S)-7-((5-(6-amino-4,6-dihydrospiro[cyclopenta[d]thiazole-5,4'-piperidin]-1'-yl)pyrazin-2-yl)thio)-8-chloro-2-isopropylisoquinolin-1(2H)-one]",< 10 nM,3 to 100 nM,–
"N[C@@H]1c2ccccc2CC12CCN(c1cnc(Sc3ccc4ncn(-c5ccccc5)c(=O)c4c3Cl)cn1)CC2 [Example 30, (S)-6-((5-(1-amino-1,3-dihydrospiro[indene-2,4'-piperidin]-1'-yl)pyrazin-2-yl)thio)-5-chloro-3-phenylquinazolin-4(3H)-one]",< 10 nM,–,–
"COC1(Cn2cnc3ccc(Sc4cnc(N5CCC6(CC5)CO[C@@H](C)[C@H]6N)cn4)c(Cl)c3c2=O)CC1 [Example 20, 6-((5-((3S,4S)-4-amino-3-methyl-2-oxa-8-azaspiro[4.5]decan-8-yl)pyrazin-2-yl)thio)-5-chloro-3-((1-methoxycyclopropyl)methyl)quinazolin-4(3H)-one]",–,3 to 100 nM,–
"COC(C)Cn1ccc2ccc(Sc3cnc(N4CCC5(CC4)Cc4ccccc4[C@H]5N)cn3)c(Cl)c2c1=O (stereo partly drawn) [Example 42, 7-((5-((S)-1-amino-1,3-dihydrospiro[indene-2,4'-piperidin]-1'-yl)pyrazin-2-yl)thio)-8-chloro-2-(2-methoxypropyl)isoquinolin-1(2H)-one]",< 10 nM,< 3 nM,–
"C[C@@H]1OCC2(CCN(c3cnc(Sc4ccc5ncn(Cc6ccccc6)c(=O)c5c4Cl)c(N)n3)CC2)[C@@H]1N [Example 12, 6-((3-amino-5-((3S,4S)-4-amino-3-methyl-2-oxa-8-azaspiro[4.5]decan-8-yl)pyrazin-2-yl)thio)-3-benzyl-5-chloroquinazolin-4(3H)-one]",–,3 to 100 nM,–
"C[C@@H]1OCC2(CCN(c3cnc(Sc4ccc5ncn(CCC#N)c(=O)c5c4Cl)cn3)CC2)[C@@H]1N [Example 24, 3-(6-((5-((3S,4S)-4-amino-3-methyl-2-oxa-8-azaspiro[4.5]decan-8: yl)pyrazin-2-yl)thio)-5-chloro-4-oxoquinazolin-3(4H)-yl)propanenitrile]",10 to 50 nM,–,< 3 nM
"COC(F)(F)Cn1cnc2ccc(Sc3cnc(N4CCC5(CC4)CO[C@@H](C)[C@H]5N)cn3)c(Cl)c2c1=O [Example 19, 6-((5-((3S,4S)-4-amino-3-methyl-2-oxa-8-azaspiro[4.5]decan-8-yl)pyrazin-2-yl)thio)-5-chloro-3-(2,2-difluoro-2-methoxyethyl)quinazolin-4(3H)-one]",–,< 3 nM,–
"N[C@@H]1c2scnc2CC12CCN(c1cnc(Sc3ccc4ncn(-c5ccccc5)c(=O)c4c3Cl)cn1)CC2 [Example 38, (S)-6-((5-(6-amino-4,6-dihydrospiro[cyclopenta[d]thiazole-5,4'-piperidin]-1'-yl)pyrazin-2-yl)thio)-5-chloro-3-phenylquinazolin-4(3H)-one]",< 10 nM,–,–
"CC(C)(O)Cn1cnc2ccc(Sc3ncc(N4CCC5(CC4)Cc4ccccc4[C@H]5N)nc3N)c(Cl)c2c1=O [Example 11, (S)-6-((3-amino-5-(1-amino-1,3-dihydrospiro[indene-2,4'-piperidin]-1'-yl)pyrazin-2-yl)thio)-5-chloro-3-(2-hydroxy-2-methylpropyl)quinazolin-4(3H)-one]",< 10 nM,< 3 nM,–
"Cn1ccc2ccc(Sc3cnc(N4CCC5(CC4)Cc4ncsc4[C@H]5N)cn3)c(Cl)c2c1=O [Example 16, (S)-7-((5-(6-amino-4,6-dihydrospiro[cyclopenta[d]thiazole-5,4'-pineridin]-1'-yl)pyrazin-2-yl)thio)-8-chloro-2-methylisoquinolin-1(2H)-one]",< 10 nM,–,–
"Cn1cnc2ccc(Sc3cnc(N4CCC5(CC4)Cc4ncccc4[C@H]5N)cn3)c(Cl)c2c1=O [Example 6, (S)-6-((5-(5-amino-5,7-dihydrospiro[cyclopenta[b]pyridine-6,4'-piperidin]-1'-yl)pyrazin-2-yl)thio)-5-chloro-3-methylquinazolin-4(3H)-one]",< 10 nM,< 3 nM,–
"Cn1cnc2ccc(Sc3cnc(N4CCC5(CC4)Cc4ncsc4[C@H]5N)cn3)cc2c1=O [Example 17, (S)-6-((5-(6-amino-4,6-dihydrospiro[cyclopenta[d]thiazole-5,4'-piperidin]-1'-yl)pyrazin-2-yl)thio)-3-methylquinazolin-4(3H)-one]",< 10 nM,< 3 nM,–
"COCCn1cnc2ccc(Sc3cnc(N4CCC5(CC4)Oc4ccccc4[C@H]5N)cn3)c(Cl)c2c1=O [Example 22, (R)-6-((5-(3-amino-3H-spiro[benzofuran-2,4'-piperidin]-1'-yl)pyrazin-2-yl)thio)-5-chloro-3-(2-methoxyethyl)quinazolin-4(3H)-one]",–,3 to 100 nM,–
"C[C@@H]1OCC2(CCN(c3cnc(Sc4ccc5ncn(CC(C)(F)F)c(=O)c5c4Cl)cn3)CC2)[C@@H]1N [Example 21, 6-((5-((3S,4S)-4-amino-3-methyl-2-oxa-8-azaspiro[4.5]decan-8-yl)pyrazin-2-yl)thio)-5-chloro-3-(2,2-difluoropropyl)quinazolin-4(3H)-one]",–,< 3 nM,–
"CC(C)(C)Cn1cnc2ccc(Sc3cnc(N4CCC5(CC4)Cc4ncsc4[C@H]5N)cn3)c(Cl)c2c1=O [Example 5, (S)-6-((5-(6-amino-4,6-dihydrospiro[cyclopenta[d]thiazole-5,4'-piperidin]-1'-yl)pyrazin-2-yl)thio)-5-chloro-3-neopentylquinazolin-4(3H)-one]",–,< 3 nM,–
"COC(C)Cn1ccc2ccc(Sc3cnc(N4CCC5(CC4)CO[C@@H](C)[C@H]5N)cn3)c(Cl)c2c1=O (stereo partly drawn) [Example 14, 7-((5-((3S,4S)-4-amino-3-methyl-2-oxa-8-azaspiro[4.5]decan-8-yl)pyrazin-2-yl)thio)-8-chloro-2-(2-methoxypropyl)isoquinolin-1(2H)-one]",< 10 nM,< 3 nM,–
